Test results taken from US20180251824A1, “IN VITRO GENOTOXICITY ASSAY USING A TRANSCRIPTOMIC BIOMARKER WITH DIRECT DIGITAL COUNTING” (GEORGETOWN UNIVERSITY, priority 2017, published 2018).
“Also recorded” adds a separate entry of the source. Values belong to the compound of their own block, whether it stands above or below them.

Assays:
[1] = system: TGx-DDI biomarker genes in TK6 cells; experiment: TGx-DDI transcriptomic biomarker classification by microarray; format: cell-based, human; conditions: for TGx-DDI classification by 2DC and/or PCA: DDI branch in 2DC or negative PC1 = DDI; for TGx-DDI prediction by probability analysis (PA): DDI call based on p>0.9; for TGx-DDI classification, overall call (DDI if positive in any of 2DC, PCA, PA): TK6 cells, 4 h, single selected concentration
From the text: Microarray procedures: RNA samples from the concentration-setting experiments of each compound at their selected concentrations were pooled together and analyzed using human whole genome expression long-nucleotide probe microarrays (60 nucleotide long, Agilent Technologies) microarray (Li et al., 2015). […] Each experiment was run on two arrays, and on each array both treated and reference (vehicle control) samples were hybridized in a dye-swap design. Specifically, the reference and treatment samples were labeled with two different fluorescence dyes, Cy3 and Cy5, and then both samples were hybridized onto one array. To reduce the effects associated with different labeling efficiencies, a two-color dye-swapping configuration was used. The results from these two arrays were combined for statistical analysis.
TGx-DDI transcriptomic biomarker evaluation: Following the dose determination, microarray analysis was performed for each test compound. RNAs from three replicates in the concentration-setting experiment were pooled together and used for microarray analysis. Cisplatin and ionizing radiation were used in parallel during each experiment as positive controls and to assess batch variation. The TGx-DDI transcriptomic biomarker panel was used to classify each chemical as DDI or non-DDI using two-dimensional clustering (2DC), principal component analysis (PCA), and probability analysis (PA). Hierarchical clustering and PCA were used as an initial unsupervised method to explore the data.
The TGx-DDI heatmap for chemicals in all five classes. PA, PCA, and 2DC results using the TGx-DDI biomarker for validation chemicals were generated. In order to decrease the probability of false negatives, a three-pronged approach was used. A chemical was classified as DDI if it gave a positive call in any one of the TGx-DDI biomarker analyses described in the paragraph above (2DC, PCA or PA prediction).

TK6 cells = experiment: MTT cell viability assay; format: cell-based, human; conditions: selected concentration, 4 hr treatment plus 20 hr recovery
Method: Dose optimization: For some assays, a sufficient concentration of the test agent is required to trigger a measureable transcriptional response; such concentrations may differ from other toxicological endpoints. Therefore, to determine an appropriate concentration for transcriptomics profiling, a dose-range finder experiment was performed for all test compounds as described in Li et al. (2015). Six concentrations of each agent were used for assessment of mRNA changes in three indicator genes (ATF 3, CDKNIA, and GADD45A) by qRT-PCR. The concentration for each agent showing the strongest induction of the indicator genes was then selected. In addition, concordance of responses in the indicator genes was confirmed prior to pooling samples for microarray analysis. If none of the indicator genes were induced in concentration-setting experiments, the IC50 was selected for the microarray analysis. The IC50 value was determined using a standard MTT assay at 24 hr using 10 concentrations and 3 replicates. Based on this cytotoxicity assay, the selected concentrations for microarray analysis were not overtly cytotoxic for any test agent (FIG. 2). Based on this cytotoxicity assay, the selected doses for microarray analysis were not overtly cytotoxic. […]

[2] = system: TGx-DDI biomarker genes in TK6 cells; experiment: TGx-DDI nCounter assay (direct digital counting); conditions: 100 ng total RNA, same samples as microarray; 2DC, PCA, PA
Method: Briefly, exponentially growing cells were treated with the indicated chemical agent for 4 h over a broad dose range, cells were harvested, and total RNA was isolated. […] For cell viability assays, at the end of 4 hr treatment, medium was removed from cells, and cells were washed and recovered in fresh medium for 20 hr. Cell viability was measured at the end of recovery period using an MTT Assay kit (Cayman Chemical, Ann Arbor, Mich.).
TGx-DDI nCounter Assay: The nCounter™ assay was performed on 100 ng of RNA that had previously been pooled and used in microarray analysis. […] In brief, optimized sequences for genes in the TGx-DDI panel were custom-designed and manufactured by NanoString. The CodeSet includes the TGx-DDI gene-set and eight housekeeping genes. Housekeeping genes were selected based on stability and detectable expression levels, including G6PD, GUSB, HPRT1, LDHA, NONO, PGK1, PPIH, and TFRC.
To validate the sensitivity and specificity of DDI prediction by TGx-DDI nCounter assay, 38 out of 45 testing compounds, including Class 1, 2, 4 and 5, were evaluated using nCounter technology. nCounter assays were performed on 100 ng of total RNA, the same RNA samples that were used in microarray analysis. Following the categorization guideline described already for microarrays, compounds were classified as DDI or non-DDI based on nCounter assay data.

[3] = system: ATF3, CDKN1A and GADD45A expression in TK6 cells; experiment: qRT-PCR indicator stress gene panel, dose optimization; format: cell-based, human; conditions: for transcriptional response of the indicator genes at a later time point: later than the 4 h time point
Method: Dose optimization: For some assays, a sufficient concentration of the test agent is required to trigger a measureable transcriptional response; such concentrations may differ from other toxicological endpoints. Therefore, to determine an appropriate concentration for transcriptomics profiling, a dose-range finder experiment was performed for all test compounds as described in Li et al. (2015). Six concentrations of each agent were used for assessment of mRNA changes in three indicator genes (ATF 3, CDKNIA, and GADD45A) by qRT-PCR. The concentration for each agent showing the strongest induction of the indicator genes was then selected. In addition, concordance of responses in the indicator genes was confirmed prior to pooling samples for microarray analysis. If none of the indicator genes were induced in concentration-setting experiments, the IC50 was selected for the microarray analysis. The IC50 value was determined using a standard MTT assay at 24 hr using 10 concentrations and 3 replicates. Based on this cytotoxicity assay, the selected concentrations for microarray analysis were not overtly cytotoxic for any test agent (FIG. 2). If there was neither cytotoxicity nor induction of expression changes in the gene panel, a concentration of 1 mM was used for microarray analysis, as per the revised ICHS2(R1) guidance on genotoxicity testing of pharmaceuticals (ICHS2(R1) (2012) Guidance for Industry: S2(R1) Genotoxicity testing and data interpretation for pharmaceuticals intended for human use. US Department of Health and Human Services, Food and Drug Administration http://www.ich.org/fileadmin/Public_Web_Site/ICH_Products/Guidelines/Safety/S2_R1/Step4/S2R1_Step4.pdf). Selection of a single concentration and pooling replicate samples for microarray analysis (described below) is specific to biomarker development and validation, where multiple compounds were used in each class; future application in substance testing should be undertaken using a dose-response design with samples in triplicate (Buick et al., 2017).

TGx-DDI classification by 2DC and/or PCA [1]: positive
TGx-DDI prediction by probability analysis (PA) [1]: non-DDI
Compound: CC/C(=C(/CC)c1ccc(O)cc1)c1ccc(O)cc1 [diethylstilbestrol]
TGx-DDI classification, overall call (DDI if positive in any of 2DC, PCA, PA) [1]: genotoxic calls

TGx-DDI classification, overall call (DDI if positive in any of 2DC, PCA, PA) [1]: non-DDI
Compound: CCn1cc(C(=O)O)c(=O)c2cc(F)c(N3CCNCC3)cc21 [norfloxacin]

Compound: bleomycin
decline (reduction) in cell viability at 24 hr (TK6 cells): 80%

Compound: Cc1nc(Nc2ncc(C(=O)Nc3c(C)cccc3Cl)s2)cc(N2CCN(CCO)CC2)n1 [dasatanib]
TGx-DDI classification, overall call (DDI if positive in any of 2DC, PCA, PA) [1]: genotoxic calls

TGx-DDI classification by 2DC and/or PCA [1]: DDI agents; also recorded: positive
TGx-DDI prediction by probability analysis (PA) [1]: non-DDI
Compound: Oc1ccc(O)cc1 [hydroquinone]
TGx-DDI classification by nCounter [2]: consistency among three classification methods

Compound: CCCN(CCc1cccs1)[C@H]1CCc2c(O)cccc2C1 [rotigotin]
induction of indicator genes ATF3, CDKN1A, GADD45A ([3]; TK6 cells, 4 h treatment, selected or tested concentrations): did not induce any of the indicator genes

TGx-DDI classification by 2DC and/or PCA [1]: DDI agents; also recorded: positive
TGx-DDI prediction by probability analysis (PA) [1]: non-DDI
Compound: CS(=O)(=O)OCCCCOS(C)(=O)=O [busulfan]
GADD45A induction relative to vehicle-treated control cells ([3]; TK6 cells, 4 h treatment, selected concentration): at least 2 fold
induction of stress genes at higher concentrations ([3]; concentrations above the selected one): did not cause greater induction
TGx-DDI classification by nCounter [2]: consistency among three classification methods

TGx-DDI classification, overall call (DDI if positive in any of 2DC, PCA, PA) [1]: DDI
Compound: Nc1nc2[nH]cnc2c(=S)[nH]1 [6-TG]

TGx-DDI classification, overall call (DDI if positive in any of 2DC, PCA, PA) [1]: DDI
Compound: O=c1[nH]cc(F)c(=O)[nH]1 [5-FU]

TGx-DDI classification, overall call (DDI if positive in any of 2DC, PCA, PA) [1]: non-DDI
Compound: Nc1ncn([C@@H]2O[C@H](CO)[C@@H](O)[C@H]2O)c(=O)n1 [5-azacytidine]
transcriptional response of the indicator genes at a later time point [3]: stronger transcriptional response

Compound: COS(C)(=O)=O [MMS]
clustering by 2DC using the TGx-DDI biomarker ([1]; reproducibility check with training-set agents, selected concentration): clustered with the genotoxic agents

TGx-DDI classification, overall call (DDI if positive in any of 2DC, PCA, PA) [1]: non-DDI
Compound: Sc1ncnc2nc[nH]c12 [6-mercaptopurine]
transcriptional response of the indicator genes at a later time point [3]: stronger transcriptional response
